In US7803966B2, “Cosmetic and pharmaceutical compositions comprising compounds that display retinoid like activities” (Johnson & Johnson Consumer France, S.A.S., priority 2007, dated 2010):

Experiments:
Format in all cases: cell-based
[1] = system: HB-EGF; experiment: HB-EGF gene expression in human squamous carcinoma cells (QRT-PCR); settings: vs untreated control
Method: Compound G was tested on Human Squamous Carcinoma Cells for its ability to induce epidermal proliferation factor HB-EGF. For this assay, Human squamous carcinoma cells were seeded in 25 cm^2 flask and cultivated until 80% of cell confluence was reached. Test compounds were added to the culture medium and cells were incubated again 48 hours. At the end of the incubation cells were trypsinized and pelleted. […] was extracted and gene expression was measured with quantitative real time Polymerase Chain Reaction (QRT-PCR) using actin gene expression as internal standard. Variation of gene expression is expressed in percent versus the untreated control. Effect of Compound G on HB-EGF gene expression, assessed by real time QPCR was +187% and +370% vs. control at doses of 10^−6 and 10^−5 M respectively.

[2] = system: Ex vivo human skin explant; experiment: Cell proliferation (Ki67 staining) in ex vivo human skin explant; settings: 10^−3 M topical, Control 90, Vehicle 45
Method: (§1) Ex vivo skin explants were prepared from skin abdominal biopsy after plastic surgery. Skin explants were maintained in culture medium at 37° C. in a water saturated atmosphere for 5 days. Compounds G was diluted in a mixture of propylene glycol (30%) and ethanol (70%) at 10^-3 M and topically applied on the explant surface. After 48 hours, half of the explants were taken and epidermal mRNA was extracted and expression of HB-EGF and IL8 genes was measured by Quantitative real time PCR (QRT-PCR). Explants were also fixed and slices were prepared and mounted on glass slides to be examined. Cell proliferation was also assessed by staining the cells with an antibody directed to the Ki67 protein and then counting the number of positive cell per mm (Table 4).

[3] = system: IL8; experiment: IL8 gene expression in ex vivo human skin explant (QRT-PCR)
Method: as §1, with “Compounds G was diluted in a mixture of propylene glycol (30%) and ethanol (70%) at 10^-3 M and topically applied on the explant surface.” left out

[4] = system: IL8; experiment: IL8 gene expression in human squamous carcinoma cells (QRT-PCR); settings: for Effect on IL8 expression (48 h)vs control: vs untreated control
[5] = system: HB-EGF; experiment: HB-EGF gene expression in ex vivo human skin explant (QRT-PCR)
Method: as §1, with “Compounds G was diluted in a mixture of propylene glycol (30%) and ethanol (70%) at 10^-3 M and topically applied on the explant surface.” left out

O=C(O)COc1ccc(/N=N/c2c(O)ccc3cc(Br)ccc23)cc1 [Compound G]
Effect on HB EGF expression vs control(48 h) ([1]; 10^−5 M): 370%
Effect on HB EGF expression vs control(48 h) ([1]; 10^−5 M, listed as compound G): 370%
Effect on HB EGF expression vs control(48 h) ([1]; 10^−6 M): 187%
Effect on HB EGF expression vs control(48 h) ([1]; 10^−6 M, listed as compound G): 187%
Cell proliferation (Ki67 + cells) [2]: 150 positive cell per mm
Effect on IL8 expression (48h)vs vehicle ([3]; 10^−3 M topical): 76%
Effect on IL8 expression (48h)vs vehicle ([3]; 10^−4 M topical): 65%
Effect on IL8 expression (48 h)vs control ([4]; 10^−5 M): 44%
Effect on IL8 expression (48 h)vs control ([4]; 10^−6 M): 10%
IL8 expression induction (in words) ([4]; "at this dose" (10^−6 and 10^−5 M), 48 h): did not significantly induce IL8 expression
Effect on HB EGF expression (48 h) vs vehicle ([5]; 10^−3 M topical): 288%
Effect on HB EGF expression (48 h) vs vehicle ([5]; 10^−4 M topical): 159%
